Test results published in patent US20240279201A1, “DUAL WNT SIGNALING PATHWAY INHIBITORS AND AMPK ACTIVATORS FOR TREATMENTS OF DISEASE” (priority 2021, published 2024).
“And” between values parts separate entries of the source, which are not always exact repeats. Identical values can stand only once. “Also recorded” adds a separate entry of the source.

How the values were obtained:
[1] = test system: Wnt/β-Catenin signaling pathway; assay: Wnt signaling luciferase (TOPflash) reporter gene assay; format: cell-based; conditions: luciferase reporter gene assay; mean of three independent experiments; read-out: IC50 (nM) to inhibit the Wnt signaling activity
Description: A dual-luciferase gene reporter assay was used to test inhibitory activities of new compounds on Wnt signaling. […] Therefore, the effects of new compounds on AMPK was examined. […]

TGF-β-treated LX-2 cells = assay: Anti-fibrotic efficacy in TGF-β-treated LX-2 cells; format: cell-based; conditions: 24 hours
Protocol: FIG. 9A-FIG. 9C illustrate the anti-fibrotic efficacy of YA6060 in LX-2 cells. LX-2 cells were exposure to TGF-beta with and without different concentrations of YA6060 for 24 hours. FIG. 9A is a gel illustrating Western blot results. FIG. 9B and FIG. 9C are graphs of experimental data illustrating RT-PCR results. FIG. 14A-FIG. 14C illustrate the anti-fibrotic efficacy of YA6060 in LX-2 cells. The effect of YA6060 treatment on the expression of fibrotic markers in LX-2 cells was examined. LX-2 cells were treated with TGF-beta to model fibrosis. FIG. 14A is an image of a Western blot illustrating protein expression of collagen 1, vimentin, and alpha-SMA. […] FIG. 14C is a graph of experimental data illustrating mRNA expression of genes associated with inflammation by RT-PCR. The cells were treated with the indicated concentrations of YA6060 for 24 hours. *P<0.05, **P<0.01. […] The effect of YA6060 treatment on the expression of fibrotic markers in LX-2 cells was examined. LX-2 cells were treated with TGF-beta to model fibrosis. Protein expression of collagen 1, vimentin, and alpha-SMA by Western blotting (FIG. 14A). mRNA expression of collagen 1, vimentin, and alpha-SMA by RT-PCR was examined (FIG. 14B). mRNA expression of genes associated with inflammation by RT-PCR was examined (FIG. 14C). The cells were treated with the indicated concentrations of YA6060 for 24 hours. *P<0.05, **P<0.01. […]

[2] = test system: DMNA-induced liver fibrosis; assay: Dimethylnitrosamine (DMNA) liver fibrosis mouse model; format: in vivo, C57BL/6 mice
Protocol: FIG. 4 illustrates that YA6060 protects liver from damage caused by dimethylnitrosamine (DMNA). Vehicle (top panels) or 10 mg/kg DMNA (bottom panels) was given on a Monday-Tuesday-Wednesday schedule each week; YA6060 or vehicle was given daily. After sacrifice of mice (6/group) at 4 weeks, paraffin sections were stained with Sirius Red to visualize collagen. […] Bars, 100 μm.
FIG. 10 is a graph of experimental data illustrating anti-fibrotic efficacy of YA6060 in mice. C57BL/6 mice received dimethylnitrosamine (DMNA, 10 mg/kg/d i.p. for 3d and then rest for 4d) or saline, with or without YA6060 (0.5 mg/kg/d) for 4 weeks. The fibrosis and inflammation biomarkers were examined by RT-PCR with the liver tissues.
FIG. 11A-FIG. 11C illustrate the effect of YA6060 on liver function in mice. C57BL/6 mice received dimethylnitrosamine (DMNA, 10 mg/kg/d i.p. for 3d and then rest for 4d) or saline, with or without YA6060 (0.5 mg/kg/d) for 4 weeks. The serum biochemistry was determined for alanine aminotransferase (ALT) and aspartate aminotransferase (AST) (FIG. 11A), albumin (FIG. 11B), and total bilirubin (FIG. 11C).
The effect of YA6060 treatment on the expression of fibrotic markers in LX-2 cells was examined. LX-2 cells were treated with TGF-beta to model fibrosis. Protein expression of collagen 1, vimentin, and alpha-SMA by Western blotting (FIG. 14A). mRNA expression of collagen 1, vimentin, and alpha-SMA by RT-PCR was examined (FIG. 14B). mRNA expression of genes associated with inflammation by RT-PCR was examined (FIG. 14C). The cells were treated with the indicated concentrations of YA6060 for 24 hours. *P<0.05, **P<0.01. The effect of YA6060 treatment on liver fibrosis in mice was also examined (FIG. 15). […]
Fibrosis in the liver tissues of the mice that received YA6060 treatment was quantified (FIG. 16). […] The collagen of liver tissues was stained by Sirius red (SR) and quantitated by Image J software. ***P<0.001. […]

Axin 1 = Axin 1 (Homo sapiens (Human), UniProt O15169); assay: Western blotting of Axin 1 in HEK293 cells; format: cell-based; conditions: 100 nM, 24 h
Protocol: FIG. 6A-FIG. 6E illustrate the development of Axin stabilizers with dual activities of Wnt inhibition and AMPK activation. […] HEK293 cells were used. B&C: 100 nM compounds, 24 h. FIG. 6D is a table showing the activity profile of YA6060. F=bioavailability; soubility is aqueous solubility.
A dual-luciferase gene reporter assay was used to test inhibitory activities of new compounds on Wnt signaling. […] Axin is also reported to form a complex with AMPK and its upstream kinase LKB1 (FIG. 12A and FIG. 12B) to facilitate AMPK activation. Therefore, the effects of new compounds on AMPK was examined. […] YA6060 and its analogs had dual activities of potent Wnt signaling inhibition and AMPK activation, which were dependent on the levels of scaffolding protein Axin.

## Cc1ccccc1-n1nnc(C(=O)Nc2ccc3cc(CN4CCNCC4)ccc3n2)c1C [YA6060]
[1]
  IC50: 4.3 nM and 4 nM
TGF-β-treated LX-2 cells
  expression of fibrosis and inflammation markers: significantly reduced the expression of fibrosis markers
[2]; 0.5 or 5 mg/kg/day, 4 weeks
  liver fibrosis (Sirius Red): reduced dimethylnitrosamine (DMNA)-induced fibrosis; also recorded: strong protective effects
[2]; DMNA 4 weeks
  inflammation infiltration (H&E hepatic histology): ameliorated
[2]; YA6060 co-treatment with DMNA
  liver function (serum ALT, AST, albumin, total bilirubin): normal liver function
Axin 1
  level of Axin 1: stabilizing
